In patent US7465544B2, “Synthetic cofactor analogs of S-adenosylmethionine as ligatable probes of biological methylation and methods for their use” (Wisconsin Alumni Research Foundation, priority 2006, dated 2008):
Where a name gives a salt, the structure may show the parent alone.

How the values were obtained:
Format in all cases: biochemical
[1] = molecular target: M.HhaI (Haemophilus parahaemolyticus, UniProt P05102)
[2] = molecular target: M.EcoRI (Escherichia coli, UniProt P00472)
[3] = molecular target: T1, M.TaqI (Thermus aquaticus, UniProt P14385); assay: Restriction/protection assay: M.TaqI-mediated alkylation of R.EcoRI-linearized pUC19; details: for extent of DNA alkylation (protection from R.TaqI digestion) with increasing M.TaqI: 14.3 nM linearized pUC19, 20 to 200 nM M.TaqI, 65° C. 4 h; for extent of DNA alkylation (protection from R.TaqI digestion) with increasing M.TaqI / protection of DNA from R.TaqI in the absence of M.TaqI: 100 μM cofactor analog; for protection of DNA from R.TaqI in the absence of M.TaqI: no M.TaqI; for protection from R.TaqI with increasing cofactor analog concentration: 10 to 100 μM cofactor analog, 200 nM M.TaqI; for efficiency of M.TaqI dependent DNA alkylation relative to 3: linearized pUC19, disappearance of smaller restriction fragments
T1 sequence (P14385 whole entry, the tested form may be a part): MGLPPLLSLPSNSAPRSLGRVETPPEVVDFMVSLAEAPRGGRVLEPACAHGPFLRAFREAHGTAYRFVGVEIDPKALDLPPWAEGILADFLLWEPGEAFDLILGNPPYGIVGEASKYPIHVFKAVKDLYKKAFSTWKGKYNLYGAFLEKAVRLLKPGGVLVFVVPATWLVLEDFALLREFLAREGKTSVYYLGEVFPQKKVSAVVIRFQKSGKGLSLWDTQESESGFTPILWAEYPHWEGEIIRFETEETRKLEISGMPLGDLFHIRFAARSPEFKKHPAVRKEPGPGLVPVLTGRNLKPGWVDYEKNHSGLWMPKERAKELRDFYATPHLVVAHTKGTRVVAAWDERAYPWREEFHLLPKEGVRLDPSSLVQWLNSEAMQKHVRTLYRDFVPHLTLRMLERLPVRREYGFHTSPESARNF

[4] = molecular target: T1, M.TaqI
[5] = molecular target: T2, M.HpaII (Haemophilus parainfluenzae, UniProt P15446); assay: M.HpaII-catalyzed transfer of cofactor analogs to DNA
T2 construct: purchased New England Biolabs
T2 sequence (P15446 1-358): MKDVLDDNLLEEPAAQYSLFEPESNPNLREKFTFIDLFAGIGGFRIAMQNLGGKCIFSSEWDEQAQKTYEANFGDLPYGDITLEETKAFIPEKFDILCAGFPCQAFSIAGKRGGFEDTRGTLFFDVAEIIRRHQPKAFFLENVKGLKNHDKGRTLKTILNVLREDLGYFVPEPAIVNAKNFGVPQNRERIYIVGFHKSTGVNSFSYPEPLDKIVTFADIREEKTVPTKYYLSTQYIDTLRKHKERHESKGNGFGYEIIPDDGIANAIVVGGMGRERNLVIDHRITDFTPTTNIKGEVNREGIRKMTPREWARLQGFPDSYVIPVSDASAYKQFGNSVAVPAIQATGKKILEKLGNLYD

[6] = molecular target: M.SssI (Spiroplasma monobiae, UniProt P15840)
M.SssI, sequence (P15840 whole entry): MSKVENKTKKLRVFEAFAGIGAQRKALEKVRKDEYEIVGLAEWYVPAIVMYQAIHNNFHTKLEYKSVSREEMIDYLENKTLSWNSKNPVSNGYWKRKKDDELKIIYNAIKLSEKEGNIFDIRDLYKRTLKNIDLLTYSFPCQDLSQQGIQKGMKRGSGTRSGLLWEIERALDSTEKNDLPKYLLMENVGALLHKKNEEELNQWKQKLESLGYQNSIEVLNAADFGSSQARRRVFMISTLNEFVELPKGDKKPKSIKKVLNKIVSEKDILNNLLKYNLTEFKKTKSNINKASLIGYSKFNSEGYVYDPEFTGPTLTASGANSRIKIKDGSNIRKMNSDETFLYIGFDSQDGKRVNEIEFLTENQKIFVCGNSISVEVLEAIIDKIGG

M.EcoRI, sequence (P00472 whole entry, the tested form may be a part): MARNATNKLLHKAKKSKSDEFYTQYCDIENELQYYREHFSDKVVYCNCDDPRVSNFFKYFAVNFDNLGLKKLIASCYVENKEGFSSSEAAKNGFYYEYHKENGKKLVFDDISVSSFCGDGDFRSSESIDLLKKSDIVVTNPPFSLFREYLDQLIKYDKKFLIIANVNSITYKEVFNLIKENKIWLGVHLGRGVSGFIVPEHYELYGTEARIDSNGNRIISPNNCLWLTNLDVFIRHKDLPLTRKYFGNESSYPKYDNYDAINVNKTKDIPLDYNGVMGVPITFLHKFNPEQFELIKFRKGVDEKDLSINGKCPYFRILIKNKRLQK
M.HhaI, sequence (P05102 whole entry): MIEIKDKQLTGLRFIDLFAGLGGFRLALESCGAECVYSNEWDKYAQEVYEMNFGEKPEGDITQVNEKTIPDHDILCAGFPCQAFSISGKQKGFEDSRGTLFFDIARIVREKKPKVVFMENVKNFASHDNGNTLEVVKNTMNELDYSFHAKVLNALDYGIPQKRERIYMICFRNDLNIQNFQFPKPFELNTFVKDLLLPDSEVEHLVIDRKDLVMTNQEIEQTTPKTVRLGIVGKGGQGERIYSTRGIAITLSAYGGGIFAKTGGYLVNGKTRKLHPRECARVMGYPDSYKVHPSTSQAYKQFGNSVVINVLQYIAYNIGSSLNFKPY

Compound | M.HhaI-catalyzed transfer of cofactor analog [1] | transfer of cofactor analog to radiolabeled synthetic oligo duplex [2] | extent of DNA alkylation (protection from R.TaqI digestion) with increasing M.TaqI [3] | protection of DNA from R.TaqI in the absence of M.TaqI [3] | protection from R.TaqI with increasing cofactor analog concentration [3] | efficiency of M.TaqI dependent DNA alkylation relative to 3 [3] | covalent attachment to synthetic oligonucleotide (DNA mobility shift) [4] | M.HpaII-catalyzed transfer of cofactor analog [5] | DNA alkylation at 200 nM cofactor analog [2] | other results
[N-]=[N+]=NCCCCNc1nc2c(N)ncnc2n1[C@@H]1O[C@H](CN2CC2)[C@H](O)C1O (stereo partly shown) [24b, 8-(4″-Azido-butylamino)-5′-aziridino-5′-deoxy adenosine] | catalyzed the transfer | closely parallels that observed with M.TaqI | increase in the amount of DNA alkylation | no protection of the DNA | increased protection from R.TaqI | better cofactor analogs for M.TaqI than is the unsubstituted cofactor analog 3 | pronounced shift of the DNA mobility | not able to catalyze the transfer |  | 
Nc1ncnc2c1ncn2[C@@H]1O[C@H](CN(CCI)CC[C@H](N)C(=O)O)C(O)[C@@H]1O (stereo partly shown) [compound 67, 5′-(diaminobutyric acid)-N-iodoethyl-5′-deoxyadenosine ammonium hydrochloride] |  |  |  |  |  |  |  |  | significant amount of slow mobility DNA | alkylation of duplex bearing 5-MeC for C substitution at the target base [1]: failed to undergo alkylation; lowest concentration at which cofactor analog is active [2]: ≤ 40 nM; alkylation of duplex bearing 5-MeC for C substitution at the target base [6]: failed to undergo alkylation
5′-aziridine adenylate [compound 3, reference compound] |  | clearly capable of transferring | increase in the amount of DNA alkylation | no protection of the DNA | increased protection from R.TaqI |  | pronounced shift of the DNA mobility | compatible |  | 
[N-]=[N+]=Nc1nc2c(N)ncnc2n1[C@@H]1O[C@H](CN2CC2)C(O)[C@@H]1O (stereo partly shown) [24a, 8-azido-5′-aziridino-5′-deoxyadenosine] | catalyzed the transfer | closely parallels that observed with M.TaqI | increase in the amount of DNA alkylation | no protection of the DNA | increased protection from R.TaqI | better cofactor analogs for M.TaqI than is the unsubstituted cofactor analog 3 | pronounced shift of the DNA mobility | not able to catalyze the transfer |  | transfer to the 55-mer duplex 5 [1]: effectively catalyze the transfer; transfer to the 55-mer duplex 5 [4]: effectively catalyze the transfer; M.SssI transfer of cofactor analog to its recognition sequence [6]: readily transfers; efficiency of M.SssI mediated DNA alkylation, hemimethylated duplex 9 versus unmethylated duplex 8 [6]: significantly more efficient for hemimethylated duplex 9
C#CCN(CCI)C[C@H]1O[C@@H](n2cnc3c(N)ncnc32)[C@@H](O)C1O (stereo partly shown) [compound 56, 5′-[(iodoethyl)propargyl)amino]-2′,3′-5′-deoxyadenosine hydrochloride] |  |  |  |  |  |  |  |  | not active at all | DNA-damaging activity in the presence of M.HhaI [1]: completely devoid of DNA-damaging activity; DNA alkylation activity relative to 3 [2]: closely parallels that of 3; alkylation of duplex pre-methylated with SAM [2]: failed to undergo reaction; protection of linearized pUC19 DNA from R.TaqI digestion ([3]; brief treatments with M.TaqI, unpublished data): used very effectively to protect linearized pUC19 DNA from R.TaqI digestion; DNA alkylation activity relative to 3 [4]: closely parallels that of 3; alkylation of duplex pre-methylated with SAM [4]: failed to undergo reaction
